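Exposure lasted 48 hours, with cells grown in 96-well plates and compounds tested at five concentrations. Abbreviation: GI50, concentration required for 50% inhibition of growth. TGI marks complete inhibition of growth.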
Experiments:
Experiment in all cases: DTP human tumour cell line panel, 48 h
OVCAR-4 ovarian = system: OVCAR-4 ovarian
HOP-62 NSCLC = system: HOP-62 NSCLC
HS 578T breast = system: HS 578T breast
NCI/ADR-RES ovarian = system: NCI/ADR-RES ovarian
MDA-MB-435 = system: MDA-MB-435
SK-MEL-2 melanoma = system: SK-MEL-2 melanoma
SW-620 colon = system: SW-620 colon
SK-MEL-5 melanoma = system: SK-MEL-5 melanoma
SNB-19 CNS = system: SNB-19 CNS
DU-145 prostate = system: DU-145 prostate
TK-10 renal = system: TK-10 renal
KM12 colon = system: KM12 colon
NCI-H522 lung = system: NCI-H522 lung
SF-295 CNS = system: SF-295 CNS
HCT-116 colon = system: HCT-116 colon
MDA-MB-231 breast = system: MDA-MB-231 breast
HT29 colon = system: HT29 colon
SF-268 CNS = system: SF-268 CNS
UACC-62 melanoma = system: UACC-62 melanoma
SK-MEL-28 melanoma = system: SK-MEL-28 melanoma
MALME-3M melanoma = system: MALME-3M melanoma
U251 CNS = system: U251 CNS
IGROV1 ovarian = system: IGROV1 ovarian
SF-539 CNS = system: SF-539 CNS
HCC-2998 colon = system: HCC-2998 colon
HL-60(TB) leukemia = system: HL-60(TB) leukemia
OVCAR-5 ovarian = system: OVCAR-5 ovarian
HCT-15 colon = system: HCT-15 colon
A549 NSCLC = system: A549 NSCLC
BT-549 breast = system: BT-549 breast
NCI-H460 lung = system: NCI-H460 lung
M14 melanoma = system: M14 melanoma
CAKI-1 renal = system: CAKI-1 renal
NCI-H226 lung = system: NCI-H226 lung
UO-31 renal = system: UO-31 renal
NCI-H23 lung = system: NCI-H23 lung
OVCAR-3 ovarian = system: OVCAR-3 ovarian
786-0 renal = system: 786-0 renal
SK-OV-3 ovarian = system: SK-OV-3 ovarian
SN12C renal = system: SN12C renal
A498 renal = system: A498 renal
ACHN renal = system: ACHN renal
HOP-92 NSCLC = system: HOP-92 NSCLC
RXF 393 renal = system: RXF 393 renal
EKVX NSCLC = system: EKVX NSCLC
UACC-257 melanoma = system: UACC-257 melanoma
SNB-75 CNS = system: SNB-75 CNS
PC-3 prostate = system: PC-3 prostate
T-47D breast = system: T-47D breast
COLO 205 colon = system: COLO 205 colon
K-562 leukemia = system: K-562 leukemia
CCRF-CEM leukemia = system: CCRF-CEM leukemia
MOLT-4 leukemia = system: MOLT-4 leukemia
OVCAR-8 ovarian = system: OVCAR-8 ovarian
RPMI-8226 leukemia = system: RPMI-8226 leukemia

## Cn1cc(-c2csc(-c3c[nH]c4ccc(F)cc34)n2)c2cnccc21
OVCAR-4 ovarian
  GI50: 1.6 µM
  TGI: 3.06 µM
HOP-62 NSCLC
  GI50: 1.54 µM
  TGI: 2.98 µM
HS 578T breast
  GI50: 2.26 µM
  TGI: 5.08 µM
NCI/ADR-RES ovarian
  GI50: 1.98 µM
  TGI: 3.98 µM
MDA-MB-435
  GI50: 1.85 µM
  TGI: 3.31 µM
SK-MEL-2 melanoma
  GI50: 1.87 µM
  TGI: 3.48 µM
SW-620 colon
  GI50: 2.12 µM
  TGI: 4.09 µM
SK-MEL-5 melanoma
  GI50: 1.65 µM
  TGI: 3.05 µM
SNB-19 CNS
  GI50: 1.95 µM
  TGI: 3.52 µM
DU-145 prostate
  GI50: 1.8 µM
  TGI: 3.28 µM
TK-10 renal
  GI50: 2.22 µM
  TGI: 3.75 µM
KM12 colon
  GI50: 1.83 µM
  TGI: 3.49 µM
NCI-H522 lung
  GI50: 1.79 µM
  TGI: 3.29 µM
SF-295 CNS
  GI50: 1.74 µM
  TGI: 3.25 µM
HCT-116 colon
  GI50: 1.22 µM
  TGI: 2.56 µM
MDA-MB-231 breast
  GI50: 1.46 µM
  TGI: 2.93 µM
HT29 colon
  GI50: 1.69 µM
  TGI: 3.29 µM
SF-268 CNS
  GI50: 1.94 µM
  TGI: 3.58 µM
UACC-62 melanoma
  GI50: 1.83 µM
  TGI: 3.39 µM
SK-MEL-28 melanoma
  GI50: 1.86 µM
  TGI: 3.29 µM
MALME-3M melanoma
  GI50: 1.94 µM
  TGI: 3.46 µM
U251 CNS
  GI50: 1.87 µM
  TGI: 3.4 µM
IGROV1 ovarian
  GI50: 1.59 µM
  TGI: 3.09 µM
SF-539 CNS
  GI50: 1.63 µM
  TGI: 3.04 µM
HCC-2998 colon
  GI50: 1.95 µM
  TGI: 3.66 µM
HL-60(TB) leukemia
  GI50: 2.19 µM
  TGI: 4.32 µM
OVCAR-5 ovarian
  GI50: 1.91 µM
  TGI: 3.36 µM
HCT-15 colon
  GI50: 1.67 µM
  TGI: 3.36 µM
A549 NSCLC
  GI50: 1.83 µM
  TGI: 3.42 µM
BT-549 breast
  GI50: 1.63 µM
  TGI: 3.06 µM
NCI-H460 lung
  GI50: 1.99 µM
  TGI: 3.95 µM
M14 melanoma
  GI50: 1.74 µM
  TGI: 3.27 µM
CAKI-1 renal
  GI50: 1.65 µM
  TGI: 3.05 µM
NCI-H226 lung
  GI50: 1.88 µM
  TGI: 4.03 µM
UO-31 renal
  GI50: 1.42 µM
  TGI: 2.73 µM
NCI-H23 lung
  GI50: 1.62 µM
  TGI: 3.25 µM
OVCAR-3 ovarian
  GI50: 1.83 µM
  TGI: 3.32 µM
786-0 renal
  GI50: 1.85 µM
  TGI: 3.47 µM
SK-OV-3 ovarian
  GI50: 1.73 µM
  TGI: 3.16 µM
SN12C renal
  GI50: 1.72 µM
  TGI: 3.22 µM
A498 renal
  GI50: 1.87 µM
  TGI: 3.31 µM
ACHN renal
  GI50: 1.74 µM
  TGI: 3.12 µM
HOP-92 NSCLC
  GI50: 1.49 µM
  TGI: 3.09 µM
RXF 393 renal
  GI50: 1.78 µM
  TGI: 3.25 µM
EKVX NSCLC
  GI50: 1.62 µM
  TGI: 3.3 µM
UACC-257 melanoma
  GI50: 1.96 µM
  TGI: 3.55 µM
SNB-75 CNS
  GI50: 1.5 µM
  TGI: 2.85 µM
PC-3 prostate
  GI50: 1.69 µM
  TGI: 3.61 µM

## CC(C)(C)c1ccc(O)c(C(O)c2ccncc2)c1 (centres undefined)
HOP-62 NSCLC
  TGI: > 100 µM
HS 578T breast
  TGI: > 100 µM
NCI/ADR-RES ovarian
  TGI: > 100 µM
T-47D breast
  TGI: > 100 µM
SW-620 colon
  TGI: > 100 µM
COLO 205 colon
  TGI: > 100 µM
K-562 leukemia
  TGI: > 100 µM
SK-MEL-5 melanoma
  TGI: 66.7 µM
DU-145 prostate
  TGI: > 100 µM
KM12 colon
  TGI: > 100 µM
NCI-H522 lung
  TGI: > 100 µM
HCT-116 colon
  TGI: > 100 µM
MDA-MB-231 breast
  TGI: > 100 µM
HT29 colon
  TGI: > 100 µM
SF-268 CNS
  TGI: > 100 µM
SK-MEL-28 melanoma
  TGI: > 100 µM
CCRF-CEM leukemia
  TGI: > 100 µM
MALME-3M melanoma
  TGI: > 100 µM
MOLT-4 leukemia
  TGI: > 100 µM
IGROV1 ovarian
  TGI: > 100 µM
SF-539 CNS
  TGI: > 100 µM
HCC-2998 colon
  TGI: > 100 µM
OVCAR-5 ovarian
  TGI: > 100 µM
HCT-15 colon
  TGI: > 100 µM
A549 NSCLC
  TGI: > 100 µM
BT-549 breast
  TGI: > 100 µM
NCI-H460 lung
  TGI: > 100 µM
CAKI-1 renal
  TGI: > 100 µM
NCI-H226 lung
  TGI: > 100 µM
UO-31 renal
  TGI: > 100 µM
NCI-H23 lung
  TGI: > 100 µM
OVCAR-3 ovarian
  TGI: > 100 µM
786-0 renal
  TGI: > 100 µM
OVCAR-8 ovarian
  TGI: > 100 µM
ACHN renal
  TGI: > 100 µM
RXF 393 renal
  TGI: > 100 µM
EKVX NSCLC
  TGI: > 100 µM
SNB-75 CNS
  TGI: > 100 µM

## Cn1nc(C(=O)N2CC(CCl)c3c2cc(N)c2ccccc32)cc1NC(=O)Nc1cc(C(=O)N2CC(CCl)c3c2cc(N)c2ccccc32)nn1C (centres undefined)
OVCAR-4 ovarian
  TGI: > 100 µM
HOP-62 NSCLC
  TGI: 69.3 µM
NCI/ADR-RES ovarian
  TGI: > 100 µM
SW-620 colon
  TGI: > 100 µM
K-562 leukemia
  TGI: > 100 µM
SNB-19 CNS
  TGI: 2.32 µM
TK-10 renal
  TGI: > 100 µM
KM12 colon
  TGI: > 100 µM
SF-295 CNS
  TGI: > 100 µM
HCC-2998 colon
  TGI: > 100 µM
OVCAR-5 ovarian
  TGI: > 100 µM
HCT-15 colon
  TGI: > 100 µM
A549 NSCLC
  TGI: > 100 µM
BT-549 breast
  TGI: 0.523 µM
NCI-H460 lung
  TGI: > 100 µM
M14 melanoma
  TGI: 5.58 µM
CAKI-1 renal
  TGI: 6.13 µM
UO-31 renal
  TGI: 65.5 µM
NCI-H23 lung
  TGI: 0.661 µM
SK-OV-3 ovarian
  TGI: > 100 µM
RPMI-8226 leukemia
  TGI: > 100 µM
A498 renal
  TGI: 54.5 µM
ACHN renal
  TGI: > 100 µM
RXF 393 renal
  TGI: 0.511 µM
EKVX NSCLC
  TGI: > 100 µM
